From patent US20250090541A1, “Methods for Treating Neurodegenerative Disorders” (Praetego Inc, priority 2022, published 2025)

Legend:
[1] = Oral pharmacokinetics and tissue distribution of PTG-630 (blood brain barrier penetration); format: in vivo, Sprague-Dawley rats; design: AUC(0-t) / AUC(0-inf): concentration or dose not given beside the values; conditions: for concentration at 0.5 h: 0.50 h
Source text: This was a study in male Sprague-Dawley rats. The primary objective was to assess the IV and PO pharmacokinetics of PTG-630. The secondary objectives were to assess tissue distribution after oral administration of PTG-630 (free base form) and the renal excretion, hepatic extraction efficiency and bioavailability of PTG-630.
Twelve non-cannulated animals were arbitrarily assigned to groups upon arrival and housed together throughout the experiment. The animals were acclimated to their designated housing for at least 24 hours before the first day of dosing. PTG-630 was formulated in 0.5% methyl cellulose and 0.1% Tween 20 in water for injection and administered to animals by mouth (PO) with blood and tissue samples collected at predetermined time points. Right thigh muscle, liver, brain, right sciatic nerve, and right kidney were collected at the terminal time points. These samples were collected and placed into individually labeled tubes and frozen at −20° C. Tissues samples were analyzed for concentration of PTG-630.

[2] = test system: Drebrin; assay: Western blot of hippocampus, human tau mice: Drebrin; format: in vivo; conditions: 12 weeks of treatment in drinking water
Source text: Mouse Hippocampus were processed for Western blotting analysis of (A) Drebrin (actin binding protein in dendritic spines, role in neuronal growth, a decrease=contributing factor in the pathogenesis of memory disturbance), (B) PSD95 (a post-synaptic protein, role in the regulation of excitatory synapse maturity), and (C) NeuN (neuronal nuclear antigen, biomarker for neurons, decrease=neuronal loss) (FIG. 3).

[3] = test system: human tau mice; assay: Tactile allodynia (manual von Frey filaments), human tau mice; format: in vivo; conditions: 5 mg/kg, after 14 weeks of treatment
Description: (§1) Female and male human tau mice (Jax #005491) were treated daily for 25 weeks with PTG-630 trihydrochloride at 1 and 5 mg/kg in drinking water starting at 10 weeks of age (before cognitive deficits appear).
(§2) Tactile and thermal responses, measures of associated damage to the peripheral nervous system (PNS), were assessed at 8, 14, 18 and 24 weeks. hTau mice developed significant tactile allodynia measured with manual von Frey filaments at the 14 weeks time point (FIG. 4).

[4] = test system: human tau mice; assay: Thermal response to heat (hypoalgesia), human tau mice; format: in vivo
Description: as §1, §2
Human tau mice develop significant hypoalgesia (FIG. 5).

[5] = test system: htau mice; assay: Intraepidermal nerve fiber (IENF) quantification in footskin, htau mice; format: in vivo
Source text: A standard measure of associated PNS damage to neuronal tissue and its amelioration is IENF, seen alongside changes in the CNS. […] The amelioration of these PNS effects confirms that PTG-630 readily enters and targets neuronal tissue, whether in the brain or elsewhere in the body.

[6] = test system: htau mice; assay: Motor nerve conduction velocity (NCV), htau mice; format: in vivo; conditions: htau mice with or without treatment, 8, 16 and 25 weeks
Description: as §1
Motor nerve conduction velocity (NCV) was measured at 8, 16 and 25 weeks after treatment.

[7] = test system: 4-hydroxynonal (4-HNE); assay: Lipid peroxidation, 4-HNE Oxiselect ELISA in hippocampus homogenates, htau mice; format: in vivo
Description: as §1
Lipid peroxidation was assessed using the 4-hydroxynonal (4-HNE) Oxiselect ELISA in hippocampus homogenates. […] It is believed that damage to neuronal tissue occurs to a significant extent via induction of oxidative stress that leads to lipoxidation, so that amelioration by PTG-630 reflects their efficacy via anti-oxidant mechanisms.

[8] = Mortality and apparent toxicity, 25 weeks in human tau mice; format: in vivo; conditions: 1 and 5 mg/kg in drinking water
Description: as §1
• 1—Control (C57B16), N=7 male, N=7 female, Final N=6 male, N=6 female • 2—htau, N=7 male, N=7 female, Final N=7 male, N=6 female • 3—htau+PTG-630 1 mg/kg drinking water, N=7 male, N=7 female, Final N=7 male, N=7 female • 4—htau+PTG-630 5 mg/kg drinking water, N=7 male, N=7 female, Final N=6 male, N=7 female
One mouse in group 4 died at week 8 from tooth occlusion.

[9] = male, Sprague-Dawley, rat, brain, po
[10] = male, Sprague-Dawley, rat, kidney, po
[11] = male, Sprague-Dawley, rat, liver, po
[12] = male, Sprague-Dawley, rat, muscle, po
[13] = male, Sprague-Dawley, rat, plasma, po
[14] = male, Sprague-Dawley, rat, sciatic nerve, po
[15] = male, Sprague-Dawley, rat, Brain, PO, mean
[16] = male, Sprague-Dawley, rat, Kidney, PO, mean
[17] = male, Sprague-Dawley, rat, Liver, PO, mean
[18] = male, Sprague-Dawley, rat, Muscle, PO, mean
[19] = male, Sprague-Dawley, rat, Plasma, PO, mean
[20] = male, Sprague-Dawley, rat, Sciatic Nerve, PO, mean

SMILES: Cc1ncc(CN2CCOCC2)c(-c2ncc[nH]2)c1O [PTG-630, 4-(1H-imidazol-2-yl)-2-methyl-5-(morpholinomethyl)pyridin-3-ol]
- Concentration ([1]; Brain, 24 h, PO, mean): BLQ
- % Extrap ([1]; Brain, PO): 23.7%
- Concentration ([1]; Kidney, 24 h, PO, mean): BLQ
- % Extrap ([1]; Kidney, PO): 14.0%
- Concentration ([1]; Liver, 24 h, PO, mean): BLQ
- % Extrap ([1]; Liver, PO): 5.72%
- Concentration ([1]; Muscle, 24 h, PO, mean): BLQ
- % Extrap ([1]; Muscle, PO): 30.7%
- % Extrap ([1]; Plasma, PO): 1.13%
- Concentration ([1]; Sciatic Nerve, 24 h, PO, mean): BLQ
- detectability in tissues 24 hours post dose ([1]; any tissue except plasma, 24 hours post dose): not detectable
- Half-life in brain relative to plasma ([1]; brain vs plasma): 1.3 times
- quantifiability in tested tissues ([1]; liver, kidney, brain, sciatic nerve, muscle): quantifiable in all tested tissues
- AUC(0-inf) [1, 9]: 6720 ng·h/mL
- AUC(0-t) [1, 9]: 5130 ng·h/mL
- Cmax [1, 9]: 1990 ng/mL
- Tmax [1, 9]: 1 h
- half-life [1, 9]: 4.53 h
- AUC(0-inf) [1, 10]: 11400 ng·h/mL
- AUC(0-t) [1, 10]: 9770 ng·h/mL
- Cmax [1, 10]: 3880 ng/mL
- Tmax [1, 10]: 1 h
- AUC(0-inf) [1, 11]: 22000 ng·h/mL
- AUC(0-t) [1, 11]: 20700 ng·h/mL
- Cmax [1, 11]: 6350 ng/mL
- Tmax [1, 11]: 1 h
- AUC(0-inf) [1, 12]: 3820 ng·h/mL
- AUC(0-t) [1, 12]: 2650 ng·h/mL
- Cmax [1, 12]: 1030 ng/mL
- Tmax [1, 12]: 1 h
- AUC(0-inf) [1, 13]: 8700 ng·h/mL
- AUC(0-t) [1, 13]: 8600 ng·h/mL
- Cmax [1, 13]: 1160 ng/mL
- Tmax [1, 13]: 1 h
- AUC(0-t) [1, 14]: 6550 ng·h/mL
- Cmax [1, 14]: 1830 ng/mL
- Tmax [1, 14]: 1 h
- Kp ([1]; male, Sprague-Dawley, rat, selected tissues vs plasma, po, read-out: exposure in selected tissues relative to exposure in plasma): 3 to 5
- concentration at 0.5 h [1, 15]: 1430 ng/mL
- concentration at 1 h [1, 15]: 1990 ng/mL
- concentration at 2 h [1, 15]: 450 ng/mL
- concentration at 4 h [1, 15]: 1000 ng/mL
- concentration at 6 h [1, 15]: 244 ng/mL
- concentration at 0.5 h [1, 16]: 2230 ng/mL
- concentration at 1 h [1, 16]: 3880 ng/mL
- concentration at 2 h [1, 16]: 1510 ng/mL
- concentration at 4 h [1, 16]: 1520 ng/mL
- concentration at 6 h [1, 16]: 466 ng/mL
- concentration at 0.5 h [1, 17]: 5720 ng/mL
- concentration at 1 h [1, 17]: 6350 ng/mL
- concentration at 2 h [1, 17]: 5080 ng/mL
- concentration at 4 h [1, 17]: 2420 ng/mL
- concentration at 6 h [1, 17]: 647 ng/mL
- concentration at 0.5 h [1, 18]: 775 ng/mL
- concentration at 1 h [1, 18]: 1030 ng/mL
- concentration at 2 h [1, 18]: 290 ng/mL
- concentration at 4 h [1, 18]: 401 ng/mL
- concentration at 6 h [1, 18]: 245 ng/mL
- concentration at 0.5 h [1, 19]: 930 ng/mL
- concentration at 1 h [1, 19]: 1160 ng/mL
- concentration at 2 h [1, 19]: 274 ng/mL
- concentration at 4 h [1, 19]: 794 ng/mL
- concentration at 6 h [1, 19]: 510 ng/mL
- concentration at 24 h ([1]; male, Sprague-Dawley, rat, Plasma, 24 h, PO, mean): 18.4 ng/mL
- concentration at 0.5 h [1, 20]: 1660 ng/mL
- concentration at 1 h [1, 20]: 1830 ng/mL
- concentration at 2 h [1, 20]: 510 ng/mL
- concentration at 4 h [1, 20]: 989 ng/mL
- concentration at 6 h [1, 20]: 690 ng/mL
- Tmax ([1]; male, Sprague-Dawley, rat, tissues, comparable to plasma, PO): 1 h
- reduced drebrin levels in hippocampus [2]: significantly (p<0.05) ameliorated
- tactile allodynia [3]: significantly ameliorated
- thermal hypoalgesia ([4]; 1 mg/kg, remained for the rest of the study): significant by 14 weeks of treatment
- thermal hypoalgesia ([4]; 5 mg/kg, by 8 weeks of treatment and for the duration of the study): significantly ameliorated
- thermal responses to heat ([4]; FIG. 5 legend, after 24 weeks of treatment): amelioration of hypoalgesia
- IENF in footskin ([5]; female mice): No difference was noted
- decreased IENF in footskin ([5]; male mice, 1 mg/kg): significantly (p<0.05) ameliorated
- Nerve conduction velocity [6]: not significantly different from control levels
- 4-HNE levels in hippocampus ([7]; 1 mg/kg): significantly (p<0.01) reduced HINE levels to control levels
- 4-HNE levels in hippocampus ([7]; 5 mg/kg): significantly (p<0.01) reduced HINE levels to control levels
- apparent toxicity [8]: No toxicity was apparent
